From US7514404B2, “PNA-neamine conjugates and methods for producing and using the same” (University of Medicine & Dentistry of New Jersey, priority 2004, dated 2009)

System: pseudotyped HIV-1 virions carrying the firefly luciferase reporter gene
Assay: Luciferase activity in CEM cells infected with pseudotyped HIV-1 virions
Format: cell-based
Details: concentrations greater than 5 μM in the culture medium
Procedure: The ability of a TAR-specific PNA-neamine conjugate to block HIV-1 production when supplemented in the culture medium was also examined. Lymphocyte CEM cells were infected with pseudotyped HIV-1 virions carrying the firefly luciferase reporter gene. The infected cells were incubated with varying concentration of PNATAR-neamine conjugate 60 or naked PNATAR during 48 hours at 37° C. and lysed to measure firefly luciferase activity. Anti-TAR PNA-transportan conjugate (PNA-membrane-permeating peptide conjugate) known to inhibit HIV-1 replication (Kaushik, et al. (2002) supra) was used as a positive control. […] Supplementation of naked PNA of SEQ ID NO:1 in the culture medium had no influence on luciferase gene expression.
Isolation of HIV-1 Virions. The pseudotyped HIV-1 virions were isolated from the culture supernatant of 293T cells transfected with pHIV-1JR-CSF-Lucenv (-) and pVSV-G clones. The culture supernatant (500 mL) was filtered through 0.45 μm pore size membrane and centrifuged at 70,000 g for 45 minutes. […] HIV-1 virions were quantified by determining the RNA copy number in the sample using NUCLISENS® HIV-1-QT Amplication Kit (Organon Teknika, Durham, N.C.). […] The virion number estimated from the RNA copy number was in agreement with the number determined by p24 quantification (1 pg p24 per 12500 virions). […]

Compound: NC[C@H]1O[C@H](O[C@H]2[C@H](O)[C@@H](O)[C@H](N)C[C@@H]2N)[C@H](N)[C@@H](O)[C@@H]1O [neamine core, neamine]
- inhibition of HIV-1 replication: did not inhibit
